Experiments:
IκB-α = assay: Fate of IκB-α after TNF-α stimulation of human endothelial cells; type: cell-based; details: TNF-α 10 ng/ml, 15 min; EET 100 nM
Description: Co-treatment with [11,12]-EET prevented the nuclear accumulation of RelA. Since the nuclear translocation of RelA requires the degradation of its endogenous cytoplasmic inhibitor, inhibitor kappa B (IκB-α), we followed the fate of IκB-α after TNF-α stimulation in the presence or absence of [11,12]-EET. Stimulation of human endothelial cells with TNF-α caused a rapid and almost complete disappearance of IκB-α which was prevented by co-treatment with [11,12]-EET, but not [14,15]-EET.
A set of gel shift assays was performed. […] In some assays, [11,12]-EET (100 nM) was also added directly to the IKK assay (in vitro). As a control for nonspecific phosphorylation, the assay was performed without the addition of immunoprecipitated IKK (no enzyme) or in the presence of a IκB-α mutant (ΔSer 32, Ser 36→Thr) as substrate. The assay was performed three times with similar results.
Specificity of IKB was determined by the complete absence of phosphorylation when the mutated IκB-α substrate, GST-1κB-α (Δ32,36: S→T) which cannot be phosphorylated at serine residues 32 and 36, was substituted for wild-type GST-IκB-α.

CYP2J2 = target: T1, CYP2J2 (Homo sapiens, UniProt P51589); assay: Arachidonic acid epoxygenase metabolite formation in CYP2J2-transfected bovine aortic endothelial cells (HPLC)
T1 construct: The CYP2J2 cDNA (1.9 kb) or GFP cDNA (0.75 kb) were subcloned into the plasmid pcDNA3.1; expressed in transfected cells; host or cells: bovine aortic endothelial cells (BAECs), transient transfection with pcDNA3.1/CYP2J2
T1 sequence (P51589 1-502): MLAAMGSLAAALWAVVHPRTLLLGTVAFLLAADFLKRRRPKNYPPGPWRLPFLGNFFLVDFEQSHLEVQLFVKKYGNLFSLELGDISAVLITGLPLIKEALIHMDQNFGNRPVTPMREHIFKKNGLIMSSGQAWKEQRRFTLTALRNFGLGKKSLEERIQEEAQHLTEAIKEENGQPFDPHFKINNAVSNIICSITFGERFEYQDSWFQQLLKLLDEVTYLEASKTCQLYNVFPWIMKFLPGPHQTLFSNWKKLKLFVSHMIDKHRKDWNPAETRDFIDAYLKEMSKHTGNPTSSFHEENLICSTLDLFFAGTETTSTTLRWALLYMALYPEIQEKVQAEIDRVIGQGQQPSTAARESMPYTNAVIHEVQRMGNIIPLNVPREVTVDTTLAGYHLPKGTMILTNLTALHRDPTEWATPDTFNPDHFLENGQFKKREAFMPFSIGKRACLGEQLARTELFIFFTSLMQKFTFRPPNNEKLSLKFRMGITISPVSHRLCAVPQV
Experimental: To study the formation of EETs by CYP2J2 in endothelial cells, we measured EET synthesis from bovine endothelial cells transfected with CYP2J2 cDNA. Early passage bovine aortic endothelial cells were grown to 60-70% confluence and transfected with either pcDNA3.1 or pcDNA3.1/CYP2J2 using Fugene™ 6 reagent (Boehringer Mannheim Corp.) according to the manufacturer's instructions. Using this method, the transfection efficiency was 10-20%. Forty-eight hours post-transfection, cells were washed twice with phosphate-buffered saline and incubated with freshly purified [^3H]arachidonic acid (185 Ci/mmol, 4-5 μCi/175 mm^2 flask) and unlabeled arachidonic acid (10 μM) was added before addition of arachidonic acid. At various time points, the media and cells were removed and extracted with diethyl ether. The combined organic phases were dried under a nitrogen stream, resolved by reverse-phase high performance liquid chromatography (HPLC) and quantified by liquid scintillation as described by Wu et al., 271 J. Biol. Chem. 3460 (1996). […]
These control GFP-transfected cells metabolized radiolabeled arachidonic acid to epoxygenase metabolites (EETs and DHETs) at a rate of ˜8 pmol/min/10^7 cells (FIG. 6). Endothelial cell arachidonic acid metabolism was determined as follows: Forty-eight hours after transfection with either pcDNA3.1/GFP or pcDNA3.1/CYP2J2, BAECs were incubated with freshly purified [5, 6, 8, 9, 11, 12, 14, 15-^3H]arachidonic acid (185 Ci/mmol, 4-5 μCi/175-mm^2 flask) in serurm-free culture medium at 37° C. for 30-120 min. […] The BAECs and culture medium were then collected and the reaction products extracted into ethyl ether, dried under a nitrogen stream, analyzed by reverse-phase HPLC, and quantified by on-line liquid scintillation using a Radiomatic Flo-One β detector (Radiomatic Instruments, Tampa, Fla.) as described (Wu et al., 271 J. Biol. Chem. 12551 (1996), Node et al., 285 Science 1276-1279 (1999)). […]

F2-isoprostanes = assay: Cellular F2-isoprostanes in BAECs exposed to hypoxia-reoxygenation (GC/MS); type: cell-based, bovine; details: CYP2J2-transfected vs GFP-transfected BAECs
Experimental: F2-Isoprostane levels in BAECs were measured using a modification of the procedure described by Morrow & Roberts, 300 Methods Enzymol. 3-12 (1999). Briefly, cells were collected by treatment with trypsin and stored at −80° C. until analyzed. BHT was added to the freshly-thawed samples to inhibit oxidation during sample processing. The samples (4×10^7 cells) were incubated with KOH for 30 minutes at 40° C. The samples were then acidified to pH 3.0, 3 ng of a d4 8-iso-PGF2α internal standard was added, and the precipitated protein was removed by centrifugation at 375×g. The F2-isoprostanes in the supernatant were concentrated by passage over C18 Sep-pak (Millipore, Marlborough, Mass.), followed by Silica Sep-pak (Millipore) columns. The eluant, containing a mixture of the d4 internal standard and endogenous cellular F2-isoprostanes, was dried under nitrogen and derivatized to the pentaflorobenzyl (PFB) ester using […] according to the protocol of Schweer et al., 32 J. Mass Spectrom. 1362-1370 (1997). The PFB-derivatized isoprostanes were purified by TLC, and the bands were collected based on comparison of their Rf values to those of authentic standards. […] Quantitation was done by GC/NCI/MS on a 25m Supelco DB 5 column (Supelco, Bellefonte, Pa.). […]

| Compound | effect on TNF-α-induced disappearance/degradation of IκB-α (IκB-α) | rate of formation of epoxygenase metabolites (EETs and DHETs) (CYP2J2) [pmol/minute/10^7 cells] | hypoxia-reoxygenation-induced increase in cellular F2-isoprostanes (F2-isoprostanes) |
| --- | --- | --- | --- |
| CCCCC/C=C\C[C@H]1O[C@H]1C/C=C\C/C=C\CCCC(=O)O [[11,12]-EET] | prevented | – | – |
| CYP2J2: CYP2J2 cDNA (1.9 kb) subcloned into plasmid pcDNA3.1, transfected into endothelial cells | – | 17.8±2.3 | significantly attenuated |

From patent publication US6916843B1, “Anti-inflammatory actions of cytochrome P450 expoxygenase-derived eicosanoids” (The United States of America as represented by the …, priority 1999, dated 2005)
